Here are results for one molecule from patent US8415309B2, “Bicyclic nucleosides and nucleotides as therapeutic agents” (priority 2009, dated 2013).

Data set [1] relates to primary human hepatocytes. Nature of the data set: In vitro anabolism of Compound 9, intracellular triphosphate in primary human hepatocytes. It counts as in vitro ADME. How it is done:
(§1) In vitro anabolism of Compound 9 and the intracellular accumulation of its triphosphate (Compound 25) were studied in adherent Huh-7 and plated primary human hepatocytes. The Huh-7 human hepatoma liver cells (JCRB0403 http://cellbank.nibio.go.jp/) are maintained in DMEM containing 10% fetal bovine serum (FBS). Huh-7 cell clones carrying a HCV subgenomic replicon (Lohmann et al., 1999. Science 285: 110-113) are maintained in DMEM supplemented with 10% FBS and 0.25 mg/ml G418. The cell lines are grown at 37° C. in a 5% CO2-95% air atmosphere. Plated primary human hepatocytes (6-well Collagen/No Overlay) were purchased from Cellz Direct (NC, USA) and maintained in InVitroGro Medium (Celsis, In Vitro Technologies, MD USA) under the same incubation conditions.
(§2) For intracellular anabolism studies, Huh-7 cells are trypsinized, harvested, re-suspended in DMEM supplemented with 10% FBS, counted and seeded at a density of 0.7×10^6 cells per well in a six-well plate and incubated for a period of 24 hr at 37° C. in 5% CO^2 atmosphere. Media is removed and replaced with fresh DMEM+10% FBS containing 10 μM Compound 9 for a period of 24 hr at 37° C. The cell monolayer is then quickly washed three times with drug-free medium to remove extracellular Compound 9 and each well is incubated with fresh DMEM+10% FBS for a specified time period (i.e. 6-wells at 0, 2, 4, 8, 24 and 48 hr). At the end of the incubation period, the medium is aspirated from the well and the cell monolayer is washed with cold phosphate buffered saline, pH 7.4. The washed cell monolayer is treated with 1.0 ml ice-cold 70% methanol:water, scraped and harvested into a centrifuge tube and then sonicated for 1 min at 4° C. The resulting cell lysate is stored overnight at −80° C. and subsequently used to extract the metabolites of Compound 9. Isolation of Compound 9 and the intracellular metabolites of Compound 9 from plated primary human hepatocytes uses similar experimental conditions, except that InVitroGro Medium is used as the cell culture medium.
(§3) Sample Analysis for intracellular nucleoside metabolites: The cell lysate samples are thawed on ice, and subjected to two freeze/thaw cycles in a dry ice/acetone bath. Cells extracts are vortexed and centrifuged at 16000 g for 5 min at 4° C. and 40 μL of supernatant is injected for analysis using a API4000 triple quadrupole system. The Shimadzu LC autosampler is set at 4° C. to minimize evaporation. Compound 9 mono-, di- and triphosphate (Compound 25) are separated using a pH gradient on a Biobasic AX, 3.0×50 mm column maintained at 40° C. […] The respective metabolites are identified and quantified by comparing their chromatographic profiles and peak area response with those of authentic standards.

Test in data set [2]: as above
It counts as in vitro ADME. The note with it: human, plated primary human hepatocytes, Human Hepatocytes. As for the experimental part:
as §1, §2, §3

The target in data set [3] is T1, HCV NS5bΔ55 (genotype 1b) (Hepatitis C virus genotype 1b, UniProt P26663).
T1 construct: 100 nM HCV NS5bΔ55 (genotype 1b) in a 50 μl reaction mixture
T1 sequence (P26663 2420-2955, stated change not applied): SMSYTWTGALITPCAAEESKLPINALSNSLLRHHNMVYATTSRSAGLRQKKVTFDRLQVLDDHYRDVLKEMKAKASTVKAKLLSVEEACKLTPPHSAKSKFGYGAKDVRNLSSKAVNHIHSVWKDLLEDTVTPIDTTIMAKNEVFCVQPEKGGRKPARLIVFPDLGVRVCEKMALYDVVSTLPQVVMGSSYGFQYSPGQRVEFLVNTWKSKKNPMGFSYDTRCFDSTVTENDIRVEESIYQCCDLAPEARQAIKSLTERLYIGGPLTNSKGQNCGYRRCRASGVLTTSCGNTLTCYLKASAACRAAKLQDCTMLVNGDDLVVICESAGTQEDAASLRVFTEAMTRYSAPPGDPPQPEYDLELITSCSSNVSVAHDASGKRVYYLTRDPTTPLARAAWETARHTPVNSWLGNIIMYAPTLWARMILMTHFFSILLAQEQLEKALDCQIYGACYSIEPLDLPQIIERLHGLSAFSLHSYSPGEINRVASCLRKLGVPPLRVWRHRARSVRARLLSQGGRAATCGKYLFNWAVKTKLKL
Nature of the data set: HCV Polymerase Inhibition Assay. It counts as biochemical. How it is done: Poly r(U) RNA template (Sigma) is employed for the HCV NS5b polymerase inhibition assay using a NS5bΔ55 (genotype 1b) purified enzyme. The kinetic constant, Km, is determined for the Poly r(U) template and ATP using a non-linear, least squares fit of initial rates as a function of substrate concentration assuming Michaelis-Menten kinetics.
Standard RdRp assays consist of 20 μg/mL Poly r(U) RNA template and 100 nM HCV NS5bΔ55 (genotype 1b) in a 50 μl reaction mixture containing 20 mM Tris-HCl, 5 mM MgCl2, 5 mM MnCl2, 3 mM DTT, 72 μM ATP, and 0.019 μM [α-^33P]ATP. Elongation reactions are initiated by the addition of ATP, and proceed for 60 min at 25° C. Reactions are quenched by the addition of 0.2 M EDTA, and product formation is collected by filtration through Multiscreen plates (Millipore). Quantification of product formation was performed using TopCount (Perkin Elmer). The inhibitor concentration at which the enzyme catalysed rate is reduced by half (IC50) is determined using a computer program for curve fitting.

The subject of data set [4] is Huh-7-HCV subgenomic replicon cells. Description: In vitro anabolism of Compound 9, intracellular triphosphate in replicon cells. The note with it: Huh-7 replicon cells; 24 hours incubation with Compound 9 at 10 μM. Format: in vitro ADME, human. How it is done:
as §1
as §2, with “The resulting cell lysate is stored overnight at −80° C. and subsequently used to extract the metabolites of Compound 9. Isolation of Compound 9 and the intracellular metabolites of Compound 9 from plated primary human hepatocytes uses similar experimental conditions, except that InVitroGro Medium is used as the cell culture medium.” left out
(§4) Sample Analysis for intracellular nucleoside metabolites: The cell lysate samples are thawed on ice, and subjected to two freeze/thaw cycles in a dry ice/acetone bath. […] The respective metabolites are identified and quantified by comparing their chromatographic profiles and peak area response with those of authentic standards.

Test in data set [5]: as above
Format: in vitro ADME, human. The note with it: human, Huh-7 cells carrying an HCV subgenomic replicon, Huh-7 replicon cells. How it is done: as §1
as §2, with “The resulting cell lysate is stored overnight at −80° C. and subsequently used to extract the metabolites of Compound 9. Isolation of Compound 9 and the intracellular metabolites of Compound 9 from plated primary human hepatocytes uses similar experimental conditions, except that InVitroGro Medium is used as the cell culture medium.” left out
as §4
A general note: In antiviral work, replicon cells carry a viral genome segment that copies itself.

A further data set deals with T2, HCV NS5b polymerase (Hepatitis C virus genotype 1b, UniProt P26663).
T2 construct: 100 nM HCV NS5bΔ55 (genotype 1b) in a 50 μl reaction mixture
T2 sequence (P26663 2420-2955): as the sequence (P26663 2420-2955, stated change not applied) above
Description: HCV NS5b Polymerase Ki Determination Assay. It counts as biochemical. How it is done: A modified method of the NS5b Polymerase inhibition assay was used to determine the Ki and the mode of action for NS5b inhibitor compounds. The enzyme and template were fixed at 100 nM and 20 µg/mL and all other reaction conditions were identical to the NS5b polymerase inhibition assay. The velocity of NS5b reactions were monitored at different ATP and inhibitor concentrations. The ATP concentration ranged from 0.1 μM to 1000 μM, and the concentration of the inhibitor ranged from 0.003 fold to 7 fold of the IC50 value. Velocities obtained at each ATP and inhibitor concentration were analysed using Graph Pad Prism to identify the mode of inhibition and Ki for inhibitor compounds. Under these conditions, the Ki for Compound 25 is 0.08 μM.

[6] abbreviates: read-out: Triphosphate decay half-life, Elimination phase (β, h).
[7] abbreviates: read-out: Triphosphate decay half-life, Initial phase (α, h) (converted).

Take `C[C@@]1(O)[C@H](O)[C@@H](COP(=O)(O)OP(=O)(O)OP(=O)(O)O)O[C@H]1c1ccc2c(N)ncnn12` [Compound 25, 4-amino-7-(2-C-methyl-β-D-ribofuranosyl)-pyrrolo[2,1-f][1,2,4]triazine 5′-triphosphate]: the “Intracellular Triphosphate Concentration (pmol/million cells, 24 hr incubation)” value in data set [1] (Human Hepatocytes, 24 hours incubation with Compound 9 at 10 μM) stood at 339 pmol/million cells; in data set [4], 5.7 pmol/million cells. The “intracellular triphosphate level in primary human hepatocytes relative to replicon cells” value in data set [1] (same experimental conditions, 10 μM Compound 9, 24 hours) is reported as approximately 60 fold. The half-life at 10 μM in data set [2] (setting [6]) was not below 38 h; in data set [2] (setting [7]), 3.4 h; in data set [5] (setting [6]) it was not below 38 h; in data set [5] (setting [7]), 0.59 h. The same molecule returned an IC50 in data set [3] of 370 nM. On HCV NS5b polymerase, this molecule had a Ki of 80 nM.

Usually half-life stands for how long it takes for the measured level to halve. A word on the IC50: it is the midpoint of a concentration-inhibition curve. For orientation: Ki means the dissociation constant of the complex between target and ligand, obtained from inhibition or displacement. Low values mean higher affinity, high ones lower affinity.
